Experiment [1] addresses T1, dopamine transporter (DAT) (Rattus norvegicus, UniProt P23977).
T1 construct: P2 membrane pellets were prepared by differential centrifugation from rat striatum; from tissue; host or cells: rat striatum (P2 membrane pellet / P2 synaptosomes)
As to the kind of experiment: [3H]mazindol binding assay. As to conditions: for Ki: rat striatum membranes, mean ± standard error or range of 2-3 experiments. How it is done: Binding assays were conducted as previously described. Briefly conventional P2 membrane pellets were prepared by differential centrifugation from rat striatum. The P2 pellet was resuspended in Krebs-Ringer-HEPES (KRH) buffer consisting of (in mM): NaCl (125), KCl (4.8), MgSO4 (1.2), CaCl2 (1.3), KH2PO4 (1.2), glucose (5.6), nialamide (0.01), and HEPES (25) (pH 7.4) and centrifuged again. Finally, the pellet was resuspended in 30 volumes of buffer, pelleted at 15,000×g and frozen at −80° C. until used. The striatal homogenates were thawed by resuspension in the buffer described above at 75-125 µg protein/ml and incubated with [^3H]mazindol, with or without competing drugs, for 60 min in a 4° C. cold room. […] The bound and free [^3H]mazindol were separated by rapid vacuum filtration over Whatman GF/C filters, using a Brandel M24R cell harvester, followed by two washes with 5 ml of cold buffer. Radioactivity on the filters was then extracted by allowing to sit over night with 5 ml of scintillant. The vials were vortexed and counted. IC50 values were determined using the computer program LIGAND.
For binding assays, caudate nuclei were homogenized using a polytron in 0.32 M sucrose and centrifuged for 10 mm at 1000×g. The supernatant was resuspended in cold sucrose and centrifuged at 17,500×g for 20 mm. The pellet was resuspended in Krebs-Ringer-HEPES (KRH) buffer consisting of (in mM): NaCl (125), KCl (4.8), MgSO4 (1.2), CaCl2 (1.3), KH2PO4(1.2), glucose (5.6), nialamide (0.01), and HEPES (25) (pH 7.4) and centrifuged again. Finally, the pellet was resuspended in 30 volumes of buffer, pelleted at 15,000×g and frozen at −80° C. until used. The striatal homogenates were thawed by resuspension in the buffer described above at 75-125 μg protein/ml and incubated with [^3H]mazindol, with or without competing drugs, for 60 mm in a 4° C. cold room. […] The bound and free [^3H]mazindol were separated by rapid vacuum filtration over Whatman GF/C filters, using a Brandel M24R cell harvester, followed by two washes with 5 ml of cold buffer. Radioactivity on the filters was then extracted by allowing to sit over night with 5 ml of scintillant. The vials were vortexed and counted. IC50 values were determined using the computer program LIGAND.

In experiment [2] the target is T1, dopamine transporter (DAT). As to the kind of experiment: Synaptosomal uptake of [3H]DA (inhibition of DA reuptake). Type of experiment: biochemical. On the procedure: The effect of candidate compounds in antagonizing dopamine high-affinity uptake was determined using a method previously employed. For [^3H]DA uptake, freshly dissected rat striata were homogenized with a Teflon-glass pestle in ice-cold 0.32 M sucrose and centrifuged for 10 min at 1000×g. The supernatant was centrifuged at 17,500×g for 20 min. This P2 synaptosomal pellet was resuspended in 30 volumes of ice-cold modified KRH buffer. An aliquot of the synaptosomal suspension was preincubated with the buffer and drug for 30 min at 37° C., and uptake initiated by the addition of [^3H]dopamine (5 nM, final conc.). After 5 min, uptake was terminated by adding 5 ml of cold buffer containing glucosamine as a substitute for NaCl and then finally by rapid vacuum filtration over GF-C glass fiber filters, followed by washing with two 5 ml volumes of ice-cold, sodium-free buffer. Radioactivity retained on the filters was determined by liquid scintillation spectrometry. […] It is identical to that calculated by subtracting the mean of identical tubes incubated at 0° C.
(§1) IC50 values were determined by a computer assisted, iterative fit to a four-parameter sigmoidal equation (ALLFIT). These values were then converted to Ki values according to the Cheng-Prusoff equation assuming classical competitive inhibition. Preincubation of the drug and synaptosomes at 37° C. for 30 min was used to approximate equilibrium conditions as necessary to satisfy the requirements of the Cheng-Prusoff equation.
(§2) The effect of candidate compounds in antagonizing dopamine high-affinity uptake was determined using a method previously employed. For [^3H]DA uptake, dissected rat striata were homogenized with a Teflon-glass pestle in ice-cold 0.32 M sucrose and centrifuged for 10 mm at 1000×g. The supernatant was centrifuged at 17,500×g for 20 mm. This P2 synaptosomal pellet was resuspended in 30 volumes of ice-cold modified KRH buffer. An aliquot of the synaptosomal suspension was preincubated with the buffer and drug for 30 mm at 37° C., and uptake initiated by the addition of [^3H]dopamine (5 nM, final conc.). After 5 mm, uptake was terminated by adding 5 ml of cold buffer containing glucosamine as a substitute for NaCl and then finally by rapid vacuum filtration over GF-C glass fiber filters, followed by washing with two 5 ml volumes of ice-cold, sodium-free buffer. Radioactivity retained on the filters was determined by liquid scintillation spectrometry. […] Also, specific uptake of [^3H]5-HT and [^3H]NE were defined in the presence of 10 uM fluoxetine and 1 uM desipramine, respectively.

For experiment [3], the target named is T2, norepinephrine transporter (Rattus norvegicus, UniProt Q63380).
T2 construct: using synaptosomes prepared from rat midbrain and parietal/occipital cortex, respectively; from tissue; host or cells: rat parietal/occipital cortex synaptosomes
T2 sequence (Q63380 1-617): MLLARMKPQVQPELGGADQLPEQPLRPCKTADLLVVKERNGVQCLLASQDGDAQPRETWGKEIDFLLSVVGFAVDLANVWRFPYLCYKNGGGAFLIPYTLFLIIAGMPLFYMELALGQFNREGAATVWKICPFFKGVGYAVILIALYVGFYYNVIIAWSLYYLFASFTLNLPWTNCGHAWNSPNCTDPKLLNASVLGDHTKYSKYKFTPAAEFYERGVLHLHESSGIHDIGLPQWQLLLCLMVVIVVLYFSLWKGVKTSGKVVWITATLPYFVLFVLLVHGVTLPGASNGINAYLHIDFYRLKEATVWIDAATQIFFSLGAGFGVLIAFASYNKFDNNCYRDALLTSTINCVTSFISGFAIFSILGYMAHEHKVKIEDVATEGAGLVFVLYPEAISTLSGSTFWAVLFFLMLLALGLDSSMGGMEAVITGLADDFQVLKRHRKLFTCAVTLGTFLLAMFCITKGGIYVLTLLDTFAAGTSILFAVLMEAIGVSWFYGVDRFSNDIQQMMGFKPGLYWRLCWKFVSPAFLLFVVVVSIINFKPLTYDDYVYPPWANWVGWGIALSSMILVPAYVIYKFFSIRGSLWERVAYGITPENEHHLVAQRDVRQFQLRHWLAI
As to the kind of experiment: Synaptosomal uptake of [3H]NE. Type of experiment: biochemical. On the procedure:
as §1, §2

Experiment [4] deals with T3, serotonin transporter (Rattus norvegicus, UniProt P31652).
T3 construct: using synaptosomes prepared from rat midbrain and parietal/occipital cortex, respectively; from tissue; host or cells: rat midbrain synaptosomes
T3 sequence (P31652 whole entry): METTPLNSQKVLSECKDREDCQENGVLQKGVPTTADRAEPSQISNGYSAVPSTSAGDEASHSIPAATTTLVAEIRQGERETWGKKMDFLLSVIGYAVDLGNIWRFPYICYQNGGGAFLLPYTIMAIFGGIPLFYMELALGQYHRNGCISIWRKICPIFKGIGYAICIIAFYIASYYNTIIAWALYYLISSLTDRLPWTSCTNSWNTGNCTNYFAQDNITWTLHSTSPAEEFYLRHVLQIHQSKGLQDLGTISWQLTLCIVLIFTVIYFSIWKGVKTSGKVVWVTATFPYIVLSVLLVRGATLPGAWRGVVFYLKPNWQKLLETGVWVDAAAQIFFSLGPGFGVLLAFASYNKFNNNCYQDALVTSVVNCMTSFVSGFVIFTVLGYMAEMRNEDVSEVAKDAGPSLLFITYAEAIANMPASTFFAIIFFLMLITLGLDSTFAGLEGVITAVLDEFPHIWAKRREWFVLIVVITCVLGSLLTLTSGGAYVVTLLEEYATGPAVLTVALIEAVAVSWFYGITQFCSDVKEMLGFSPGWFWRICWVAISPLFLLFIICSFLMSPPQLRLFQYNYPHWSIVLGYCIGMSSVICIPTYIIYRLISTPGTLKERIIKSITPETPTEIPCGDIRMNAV
As to the kind of experiment: Synaptosomal uptake of [3H]5-HT. Type of experiment: biochemical. On the procedure: as §1, §2

Experiment [5] deals with DAT (Homo sapiens, UniProt Q01959). As to conditions: cited from earlier work.
DAT, sequence (Q01959 whole entry, species assumed): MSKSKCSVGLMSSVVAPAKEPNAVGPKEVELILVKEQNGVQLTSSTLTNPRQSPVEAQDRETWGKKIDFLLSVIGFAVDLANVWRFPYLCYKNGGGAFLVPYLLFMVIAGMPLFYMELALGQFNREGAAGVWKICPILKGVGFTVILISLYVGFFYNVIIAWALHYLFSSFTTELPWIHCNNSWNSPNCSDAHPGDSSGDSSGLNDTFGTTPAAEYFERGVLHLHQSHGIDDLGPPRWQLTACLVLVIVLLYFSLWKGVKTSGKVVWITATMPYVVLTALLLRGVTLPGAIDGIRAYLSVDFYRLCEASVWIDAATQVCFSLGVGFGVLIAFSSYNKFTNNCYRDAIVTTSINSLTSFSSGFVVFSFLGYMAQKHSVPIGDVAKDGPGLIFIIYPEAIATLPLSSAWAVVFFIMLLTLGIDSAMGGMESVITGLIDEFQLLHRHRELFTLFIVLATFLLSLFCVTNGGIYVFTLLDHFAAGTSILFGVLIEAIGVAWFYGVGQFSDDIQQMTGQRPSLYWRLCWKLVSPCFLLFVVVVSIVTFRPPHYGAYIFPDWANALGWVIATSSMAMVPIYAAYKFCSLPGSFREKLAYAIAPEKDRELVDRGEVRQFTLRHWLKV
Setting [6] is: read-out: Ki (nM) [3H] Mazindol Binding.
[7] abbreviates: Ki (nM) DA Reuptake, rat striatal synaptosomes, mean ± standard error or range of 2-3 experiments.
Setting [8] is: Ki (nM) NE, synaptosomes from rat parietal/occipital cortex, mean ± standard error or range of 2-3 experiments.
Setting [9] is: Ki (nM) SER, synaptosomes from rat midbrain, mean ± standard error or range of 2-3 experiments.
The mark [10] stands for this setting: binding affinity and DA reuptake not distinguished in the sentence.

Molecules are shown by their SMILES. Read-outs that look alike come from different tables or passages of the source. Some results are limits rather than exact numbers.

T1 sequence (P23977 whole entry): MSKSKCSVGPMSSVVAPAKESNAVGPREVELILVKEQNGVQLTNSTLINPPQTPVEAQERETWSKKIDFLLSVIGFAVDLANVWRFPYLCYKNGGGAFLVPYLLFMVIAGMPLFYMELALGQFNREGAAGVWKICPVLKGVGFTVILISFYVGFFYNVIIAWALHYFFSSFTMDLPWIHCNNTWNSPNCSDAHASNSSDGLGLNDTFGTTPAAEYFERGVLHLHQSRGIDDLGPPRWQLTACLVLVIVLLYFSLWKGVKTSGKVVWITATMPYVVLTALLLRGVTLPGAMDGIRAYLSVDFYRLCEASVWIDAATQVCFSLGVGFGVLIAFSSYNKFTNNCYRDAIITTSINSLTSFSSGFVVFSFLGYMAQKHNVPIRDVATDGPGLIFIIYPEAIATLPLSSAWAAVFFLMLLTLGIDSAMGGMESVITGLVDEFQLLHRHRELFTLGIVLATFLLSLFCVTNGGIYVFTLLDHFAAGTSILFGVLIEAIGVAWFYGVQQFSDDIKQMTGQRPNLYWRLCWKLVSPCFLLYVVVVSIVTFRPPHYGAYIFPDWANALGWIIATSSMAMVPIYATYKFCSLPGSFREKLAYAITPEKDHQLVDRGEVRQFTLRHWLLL

Regarding `CCCCC1C(c2ccccc2)C2CCN1CC2` (racemic) [(±)-12, 2-Butyl-3-phenylquinuclidine], in experiment [1], the “times more potent than cocaine in binding affinity” value is “as potent as cocaine”. Further, the Ki in experiment [1] (setting [6]) was 210 nM; in experiment [2] (setting [7]) it was 237 nM; in experiment [3] it was 136 ± 11 nM; in experiment [4], 655 ± 21 nM. Moreover, the “fold improvement over the lead compound (3) in binding affinity” value (“fold improvement … in binding affinity” below) in experiment [1] (ratio of Ki values) came out at 31 fold. Besides, the “times more potent than cocaine in inhibition of DA reuptake” value in experiment [2] is “as potent as cocaine”. In addition, the “fold improvement over the lead compound (3) in inhibition of DA reuptake” value (“fold improvement … in inhibition of DA reuptake” below) in experiment [2] (ratio of Ki values) came out at 32 fold.

Regarding `CCCCC1C(c2ccc(C)cc2)C2CCN1CC2` (racemic) [(±)-13, 2-Butyl-3-(4-methylphenyl)quinuclidine], the Ki in experiment [1] (Ki (nM) [3H] Mazindol Binding) amounted to 20 nM; in experiment [2] (setting [7]) it was 49 nM; in experiment [3] (setting [8]), 62 ± 5 nM; in experiment [4] (setting [9]) it was 77 ± 7 nM. Also, the “fold improvement over 13 (so in the source) in binding activity” value in experiment [1] (ratio of Ki values) is given as 11 fold. The “fold improvement … in binding affinity” value in experiment [1] (ratio of Ki values) came to 365 fold. The “fold improvement over 13 (so in the source) in uptake activity” value in experiment [2] (ratio of Ki values) stood at 5 fold. Besides, the “fold improvement … in inhibition of DA reuptake” value in experiment [2] (ratio of Ki values) is 181 fold.

`CCCCC1C(c2ccc(C)cc2)C2CCN1CC2` (single isomer, unassigned; (+)) [(+)-13, 2-Butyl-3-(4-methylphenyl)quinuclidine]: the Ki in experiment [1] (setting [6]) was found to be 343 nM; in experiment [2] (setting [7]), 354 nM; in experiment [3], 164 ± 47 nM; in experiment [4] it was 508 ± 22 nM.

In the case of `CCCCC1C(c2ccc(C)cc2)C2CCN1CC2` (single isomer, unassigned; (-)) [(−)-13, 2-Butyl-3-(4-methylphenyl)quinuclidine], in experiment [1], the “times more potent than cocaine in binding affinity” value is given as 17 times. Also, the Ki in experiment [1] (Ki (nM) [3H] Mazindol Binding) is 14 nM; in experiment [2] (setting [7]), 32 nM; in experiment [3] (setting [8]), 15 ± 3 nM; in experiment [4] (setting [9]) it was 26 ± 3 nM. The “fold improvement … in binding affinity” value in experiment [1] (ratio of Ki values) was 519 fold. Moreover, the “times more potent than cocaine in inhibition of DA reuptake” value in experiment [2] was 9 times. In addition, the “fold more potent than (±)-13” value in experiment [2] (setting [10]) is on record as “approximately 2 fold”. Moreover, in experiment [2] (setting [10]), the “fold more potent than its enantiomer (+)-13” value stood at 11 fold. Moreover, in experiment [2] (ratio of Ki values), the “fold improvement … in inhibition of DA reuptake” value is 278 fold.

`COC(=O)[C@H]1[C@@H](c2ccccc2)C[C@@H]2CC[C@H]1N2C` [2 (WIN 35065-2), WIN 35065-2]: the “binding affinity at the DAT site, times better than cocaine” value in experiment [5] is reported as 4 times.

Turning to `C=CCCC1C(=O)C2CCN1CC2` (centres unmarked) [Compound 7, 2-But-3-enylquinuclidin-3-one], the Ki in experiment [2] (setting [7]) is greater than 10000 nM. In experiment [2] (at 10 µM), the “measurable activity in inhibition of DA reuptake” value is listed as “did not show any measurable activity”.

As to `C=CCCC1N2CCC(CC2)C1(O)c1ccccc1` (centres unmarked) [Compound 8, 2-But-3-enyl-3-phenylquinuclidin-3-ol], in experiment [2] (Ki value (text, refers to Table 1 DA reuptake)), the Ki is 31200 nM. Besides, the “fold less potent than 12” value in experiment [2] (ratio of Ki values, DA reuptake) is 131 fold.
